Results from the supplement of paper PMC10307832.

Compound: Cc1ccc(Nc2nccc(N(C)c3ccc4c(C)n(C)nc4c3)n2)cc1S(N)(=O)=O [Pazopanib] + C[C@@H](Oc1cc(-c2cnn(C3CCNCC3)c2)cnc1N)c1c(Cl)ccc(F)c1Cl [Crizotinib] (partner 1 µM)
Assay: relative viability (nuclei count vs DMSO), 5 days (fraction); higher = more cells survive
Details: first compound 1 µM
Outline: (§1)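 Medians of duplicate plates are given as relative viability. That measure is the nuclei count in treated wells divided by the count in vehicle wells. Counts were taken on 4× images of lung cancer cell lines in 1536-well plates, 5 days after pin-tool dosing the day after seeding with one drug alone or a fixed anchor-drug dose plus five library-drug doses (not always all listed) in √10 steps.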

| Cell Line | relative viability |
| --- | --- |
| NCI-H596 | 0.926 |
| NCI-H2126 | 1.03 |
| EMC-BAC-2 | 0.749 |
| NCI-H2085 | 0.935 |
| Calu-6 | 0.762 |
| HCC-366 | 0.63 |
| NCI-H1666 | 1.27 |
| NCI-H647 | 1.06 |
| LK-2 | 0.235 |
| NCI-H2087 | 0.701 |
| H3255 | 0.995 |
| COR-L23 | 0.64 |
| COR-L 105 | 0.964 |
| IA-LM | 0.659 |
| LOU-NH91 | 0.761 |
| ChaGo-K-1 | 1.06 |

| Cell Line | relative viability |
| --- | --- |
| NCI-H358 | 0.478 |
| NCI-H3122 | 0.348 |
| HOP-62 | 0.948 |
| HCC-44 | 0.823 |
| A549 | 0.732 |
| LU99A | 0.568 |
| BEN | 0.787 |
| NCI-H1299 | 0.892 |
| CAL-12T | 0.675 |
| NCI-H2228 | 0.366 |
| NCI-H1944 | 1.05 |
| NCI-H1563 | 0.888 |
| NCI-H2170 | 1.14 |
| ABC-1 | 1.11 |
| SK-MES-1 | 0.98 |

Compound: Cc1ccc(C(=O)Nc2ccc(CN3CCN(C)CC3)c(C(F)(F)F)c2)cc1C#Cc1cnc2cccnn12 [Ponatinib] + CC(=O)Nc1cccc(-n2c(=O)n(C3CC3)c(=O)c3c(Nc4ccc(I)cc4F)n(C)c(=O)c(C)c32)c1 [Trametinib] (partner 0.02 µM)
Assay: as above
Details: first compound 0.002 µM
Outline: as §1

| Cell Line | relative viability |
| --- | --- |
| NCI-H2342 | 0.741 |
| NCI-H838 | 0.461 |
| NCI-H1650 | 0.583 |
| NCI-H1993 | 0.539 |
| NCI-H2347 | 0.241 |
| PC-14 | 0.701 |
| LCLC-103H | 0.678 |
| NCI-H596 | 0.783 |
| NCI-H2126 | 0.564 |
| EMC-BAC-2 | 0.875 |
| NCI-H2085 | 0.482 |
| HCC-366 | 0.32 |
| NCI-H1666 | 0.83 |
| NCI-H647 | 0.399 |
| LK-2 | 0.787 |
| NCI-H2087 | 0.217 |
| NCI-H1648 | 0.478 |
| NCI-H1395 | 0.905 |
| H3255 | 0.62 |

| Cell Line | relative viability |
| --- | --- |
| COR-L23 | 0.526 |
| COR-L 105 | 0.429 |
| LOU-NH91 | 0.803 |
| ChaGo-K-1 | 0.863 |
| NCI-H358 | 0.162 |
| NCI-H3122 | 0.256 |
| HOP-62 | 0.417 |
| HCC-44 | 1 |
| NCI-H522 | 0.739 |
| LU99A | 0.476 |
| BEN | 1.02 |
| SW 900 | 1 |
| NCI-H1793 | 0.395 |
| CAL-12T | 0.315 |
| NCI-H2228 | 0.546 |
| NCI-H1944 | 0.426 |
| NCI-H2170 | 0.865 |
| SK-MES-1 | 0.629 |

Same assay, conditions: first compound 0.006325 µM

| Cell Line | relative viability |
| --- | --- |
| NCI-H2342 | 0.802 |
| NCI-H838 | 0.554 |
| NCI-H1650 | 0.543 |
| NCI-H1993 | 0.506 |
| NCI-H2347 | 0.272 |
| PC-14 | 0.727 |
| LCLC-103H | 0.718 |
| NCI-H596 | 0.812 |
| NCI-H2126 | 0.576 |
| EMC-BAC-2 | 0.897 |
| NCI-H2085 | 0.557 |
| HCC-366 | 0.417 |
| NCI-H1666 | 0.786 |
| NCI-H647 | 0.5 |
| LK-2 | 0.666 |
| NCI-H2087 | 0.201 |
| NCI-H1648 | 0.361 |
| NCI-H1395 | 1.01 |
| H3255 | 0.655 |

| Cell Line | relative viability |
| --- | --- |
| COR-L23 | 0.593 |
| COR-L 105 | 0.479 |
| LOU-NH91 | 0.807 |
| ChaGo-K-1 | 0.907 |
| NCI-H358 | 0.147 |
| NCI-H3122 | 0.199 |
| HOP-62 | 0.403 |
| HCC-44 | 1.02 |
| NCI-H522 | 0.876 |
| LU99A | 0.554 |
| BEN | 0.967 |
| SW 900 | 0.967 |
| NCI-H1793 | 0.511 |
| CAL-12T | 0.311 |
| NCI-H2228 | 0.656 |
| NCI-H1944 | 0.465 |
| NCI-H2170 | 0.962 |
| SK-MES-1 | 0.693 |

Same assay, conditions: first compound 0.06325 µM

| Cell Line | relative viability |
| --- | --- |
| NCI-H2342 | 0.936 |
| NCI-H838 | 0.529 |
| NCI-H1650 | 0.801 |
| NCI-H1993 | 0.64 |
| NCI-H2347 | 0.332 |
| PC-14 | 0.859 |
| LCLC-103H | 0.673 |
| NCI-H596 | 0.825 |
| NCI-H2126 | 0.691 |
| EMC-BAC-2 | 0.91 |
| NCI-H2085 | 0.675 |
| HCC-366 | 0.428 |
| NCI-H1666 | 0.827 |
| NCI-H647 | 0.458 |
| LK-2 | 0.746 |
| NCI-H2087 | 0.131 |
| NCI-H1648 | 0.432 |
| NCI-H1395 | 0.976 |
| H3255 | 0.607 |

| Cell Line | relative viability |
| --- | --- |
| COR-L23 | 0.372 |
| COR-L 105 | 0.473 |
| LOU-NH91 | 0.886 |
| ChaGo-K-1 | 0.914 |
| NCI-H358 | 0.12 |
| NCI-H3122 | 0.241 |
| HOP-62 | 0.374 |
| HCC-44 | 1.05 |
| NCI-H522 | 0.594 |
| LU99A | 0.342 |
| BEN | 0.982 |
| SW 900 | 0.762 |
| NCI-H1793 | 0.344 |
| CAL-12T | 0.332 |
| NCI-H2228 | 0.495 |
| NCI-H1944 | 0.49 |
| NCI-H2170 | 0.899 |
| SK-MES-1 | 0.511 |

Same assay, conditions: first compound 0.2 µM

| Cell Line | relative viability |
| --- | --- |
| NCI-H2342 | 0.83 |
| NCI-H838 | 0.424 |
| NCI-H1650 | 0.474 |
| NCI-H1993 | 0.572 |
| NCI-H2347 | 0.264 |
| PC-14 | 0.794 |
| LCLC-103H | 0.579 |
| NCI-H596 | 0.642 |
| NCI-H2126 | 0.578 |
| EMC-BAC-2 | 0.718 |
| NCI-H2085 | 0.568 |
| HCC-366 | 0.273 |
| NCI-H1666 | 0.777 |
